The results in this text go back to patent publication US20250064941A1, “SIGLEC LIGANDS, CONJUGATES, AND METHODS OF USE THEREOF” (Osprey Biopharmaceuticals, Inc., priority 2023, published 2025).

A word on the Kd: it is the equilibrium constant for the complex coming apart.

Assay [1] has as its target T1, mouse Siglec-2-Fc-Avi (CD22) (Mus musculus, UniProt P35329).
T1 construct: made in house
T1 sequence (P35329 22-708 limits assumed): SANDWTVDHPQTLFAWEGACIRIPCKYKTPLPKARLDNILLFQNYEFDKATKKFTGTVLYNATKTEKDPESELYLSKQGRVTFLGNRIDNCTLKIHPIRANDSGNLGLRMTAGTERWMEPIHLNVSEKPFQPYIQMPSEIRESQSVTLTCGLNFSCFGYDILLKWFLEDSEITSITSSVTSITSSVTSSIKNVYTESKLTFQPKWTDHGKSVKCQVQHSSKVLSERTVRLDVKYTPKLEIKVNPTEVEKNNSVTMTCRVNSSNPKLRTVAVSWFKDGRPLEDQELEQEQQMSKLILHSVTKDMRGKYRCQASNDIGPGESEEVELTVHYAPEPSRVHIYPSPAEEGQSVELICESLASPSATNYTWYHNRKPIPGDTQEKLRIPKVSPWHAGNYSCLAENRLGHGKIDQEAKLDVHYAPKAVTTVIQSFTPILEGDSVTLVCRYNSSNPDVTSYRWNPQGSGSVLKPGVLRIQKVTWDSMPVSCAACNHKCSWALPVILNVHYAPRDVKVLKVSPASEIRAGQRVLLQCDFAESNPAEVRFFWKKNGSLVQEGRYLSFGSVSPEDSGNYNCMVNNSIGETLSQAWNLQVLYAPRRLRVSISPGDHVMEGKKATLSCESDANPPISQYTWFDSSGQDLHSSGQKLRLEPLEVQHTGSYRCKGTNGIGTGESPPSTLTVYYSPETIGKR
Briefly: SPR binding affinity to mouse CD22. Conditions: steady-state analysis. As to the method: (§1) Prior to immobilization, CD22 proteins were treated with SialoExo (Genovis, Cat #G1-SM1-020) for 4 hours at 37° C. to remove native sialic acid residues.
(§2) Capture of biotinylated CD22 constructs was performed using a Cytiva SA chip (BR100398) on a Biacore 8K instrument.
(§3) Binding experiments of Siglec-ligand conjugated proteins or Siglec ligand compounds were performed on the surfaces prepared above in 10 mM HEPES, 150 mM NaCl, 0.05% Tween-20, pH 7.5, 1% DMSO as the running buffer. […] The compounds were then allowed to dissociate from the surface for 120 seconds. […] Solvent correction was performed using 0.5, 1, 1.5, and 2% DMSO spike into running buffer without DMSO. […] Data was analyzed using steady-state analysis in Biacore Insight Evaluation Software, version 3.0 for Siglec ligand compounds.
On the technique in general: In SPR one partner is held on a chip, and binding of the other changes the refractive index at the surface.

Assay [2] addresses T2, human Siglec-2/CD22 protein (Homo sapiens, UniProt P20273).
T2 construct: purchased Acro Biosystems SI2-H82E3
T2 sequence (P20273 20-847): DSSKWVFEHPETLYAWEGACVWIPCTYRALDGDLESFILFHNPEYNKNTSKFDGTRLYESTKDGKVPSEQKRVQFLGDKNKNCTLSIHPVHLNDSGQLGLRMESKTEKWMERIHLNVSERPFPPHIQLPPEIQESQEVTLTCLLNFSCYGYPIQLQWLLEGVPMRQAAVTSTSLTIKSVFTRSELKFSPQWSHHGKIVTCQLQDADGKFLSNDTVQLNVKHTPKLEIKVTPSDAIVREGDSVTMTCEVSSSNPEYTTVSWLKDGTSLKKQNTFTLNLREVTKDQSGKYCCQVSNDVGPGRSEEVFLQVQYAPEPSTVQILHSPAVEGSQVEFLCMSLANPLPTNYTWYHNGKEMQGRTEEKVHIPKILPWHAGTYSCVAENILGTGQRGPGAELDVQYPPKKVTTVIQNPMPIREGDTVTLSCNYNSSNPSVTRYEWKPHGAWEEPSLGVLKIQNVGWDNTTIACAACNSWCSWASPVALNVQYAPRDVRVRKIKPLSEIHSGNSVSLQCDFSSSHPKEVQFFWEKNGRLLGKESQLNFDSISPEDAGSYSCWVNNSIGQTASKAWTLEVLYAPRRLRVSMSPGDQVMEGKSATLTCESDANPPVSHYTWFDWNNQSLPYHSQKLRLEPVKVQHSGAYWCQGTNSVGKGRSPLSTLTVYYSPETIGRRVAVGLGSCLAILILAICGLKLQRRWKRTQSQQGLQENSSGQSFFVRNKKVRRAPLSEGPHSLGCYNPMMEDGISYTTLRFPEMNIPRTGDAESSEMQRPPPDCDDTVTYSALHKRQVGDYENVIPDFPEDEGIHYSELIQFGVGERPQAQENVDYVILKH
Briefly: SPR binding affinity to human CD22. Conditions: steady-state analysis. As for the experimental part: as §1, §2, §3

Take `C#CCOCCOCCO[C@]1(C(=O)O)C[C@H](O)[C@@H](NC(C)=O)[C@H]([C@H](O)[C@H](O)CNCc2cccc(Oc3ccccc3)c2)O1` [Compound 17, (2R,4S,5R,6R)-5-acetamido-6-((1R,2R)-1,2-dihydroxy-3-((3-phenoxybenzyl)amino)propyl)-4-hydroxy-2-(2-(2-(prop-2-yn-1-yloxy)ethoxy)ethoxy)tetrahydro-2H-pyran-2-carboxylic acid]: the Kd in assay [1] is over 10000 nM; in assay [2] it was under 1000 nM.

In the case of `C#CCOCCOCCNc1c(NCCCCCCO[C@]2(C(=O)O)C[C@H](O)[C@@H](NC(=O)CO)[C@H]([C@H](O)[C@H](O)CNC(=O)c3cccc(Oc4ccccc4)c3)O2)c(=O)c1=O` [Compound 39, (2R,4S,5R,6R)-6-((1R,2R)-1,2-dihydroxy-3-(3-phenoxybenzamido)propyl)-2-((6-((3,4-dioxo-2-((2-(2-(prop-2-yn-1-yloxy)ethoxy)ethyl)amino)cyclobut-1-en-1-yl)amino)hexyl)oxy) -4-hydroxy-5-(2-hydroxyacetamido) tetrahydro-2H-pyran-2-carboxylic acid], the Kd in assay [1] was 1000 to 10000 nM; in assay [2], under 1000 nM.

With `C#CCOCCCCCCO[C@]1(C(=O)O)C[C@H](O)[C@@H](NC(=O)NCC)[C@H]([C@H](O)[C@H](O)CNC(=O)Cc2ccc(Cl)cc2)O1` [Compound 87, (2R,4S,5R,6R)-6-((1R,2R)-3-(2-(4-chlorophenyl)acetamido)-1,2-dihydroxypropyl)-5-(3-ethylureido)-4-hydroxy-2-((6-(prop-2-yn-1-yloxy)hexyl)oxy)tetrahydro-2H-pyran-2-carboxylic acid], the equilibrium dissociation constant (Kd) in assay [1] is 1000 to 10000 nM; in assay [2] it was under 1000 nM.

For `C#CCOCCCCCCO[C@]1(C(=O)O)C[C@H](O)[C@@H](NC(=O)c2ccccc2)[C@H]([C@H](O)[C@H](O)CNC(=O)Cc2ccc(Cl)cc2)O1` [Compound 92, (2R,4S,5R,6R)-5-benzamido-6-((1R,2R)-3-(2-(4-chlorophenyl)acetamido)-1,2-dihydroxypropyl)-4-hydroxy-2-((6-(prop-2-yn-1-yloxy)hexyl)oxy)tetrahydro-2H-pyran-2-carboxylic acid], the Kd in assay [1] was over 10000 nM; in assay [2], under 1000 nM.

Regarding `C#CCOP(=O)(O)OCCCCCO[C@]1(C(=O)O)C[C@H](O)[C@@H](NC(=O)CO)[C@H]([C@H](O)[C@H](O)CNC(=O)Cc2ccc(Cl)cc2)O1` [Compound 95, (2R,4S,5R,6R)-6-((1R,2R)-3-(2-(4-chlorophenyl)acetamido)-1,2-dihydroxypropyl)-4-hydroxy-2-((5-((hydroxy(prop-2-yn-1-yloxy)phosphoryl)oxy)pentyl)oxy)-5-(2-hydroxyacetamido)tetrahydro-2H-pyran-2-carboxylic acid], the dissociation constant Kd in assay [1] was 1000 to 10000 nM; in assay [2], under 1000 nM.

Turning to `C#CCOP(=O)(O)OCCCCO[C@]1(C(=O)O)C[C@H](O)[C@@H](NC(=O)CO)[C@H]([C@H](O)[C@H](O)CNC(=O)Cc2ccc(Cl)cc2)O1` [Compound 115, (2R,4S,5R,6R)-6-((1R,2R)-3-(2-(4-chlorophenyl)acetamido)-1,2-dihydroxypropyl)-4-hydroxy-2-(4-((hydroxy(prop-2-yn-1-yloxy)phosphoryl)oxy)butoxy)-5-(2-hydroxyacetamido)tetrahydro-2H-pyran-2-carboxylic acid], the values for the dissociation constant Kd in assay [1] and in assay [2] were 1000 to 10000 nM and under 1000 nM, respectively.

Take `C#CCOC(=O)NCc1ccc(CO[C@]2(C(=O)O)C[C@H](O)[C@@H](NC(=O)CO)[C@H]([C@H](O)[C@H](O)CNC(=O)Cc3ccc(Cl)cc3)O2)cc1` [Compound 117, (2R,4S,5R,6R)-6-((1R,2R)-3-(2-(4-chlorophenyl)acetamido)-1,2-dihydroxypropyl)-4-hydroxy-5-(2-hydroxyacetamido)-2-((4-((((prop-2-yn-1-yloxy)carbonyl)amino)methyl)benzyl)oxy)tetrahydro-2H-pyran-2-carboxylic acid]: the dissociation constant Kd in assay [1] and in assay [2] was under 1000 nM each time.

Turning to `C#CCCOc1ccc(CO[C@]2(C(=O)O)C[C@H](O)[C@@H](NC(=O)CO)[C@H]([C@H](O)[C@H](O)CNC(=O)Cc3ccc(N4CCOCC4)cc3)O2)cc1` [Compound 139, (2R,4S,5R,6R)-2-((4-(but-3-yn-1-yloxy)benzyl)oxy)-6-((1R,2R)-1,2-dihydroxy-3-(2-(4-morpholinophenyl)acetamido)propyl)-4-hydroxy-5-(2-hydroxyacetamido)tetrahydro-2H-pyran-2-carboxylic acid], the Kd is under 1000 nM in assay [1] and 1000 to 10000 nM in assay [2].

As for `C#CCOCCCCCCO[C@]1(C(=O)O)C[C@H](O)[C@@H](Nc2c(NC)c(=O)c2=O)[C@H]([C@H](O)[C@H](O)CNC(=O)Cc2ccc(Cl)cc2)O1` [Compound 191, (2R,4S,5R,6R)-6-((1R,2R)-3-(2-(4-chlorophenyl)acetamido)-1,2-dihydroxypropyl)-4-hydroxy-5-((2-(methylamino)-3,4-dioxocyclobut-1-en-1-yl)amino)-2-((6-(prop-2-yn-1-yloxy)hexyl)oxy)tetrahydro-2H-pyran-2-carboxylic acid], the equilibrium dissociation constant (Kd) is over 10000 nM in assay [1] and under 1000 nM in assay [2].

Turning to `C#CCOCCCCCCO[C@]1(C(=O)O)C[C@H](O)[C@@H](NC(=O)CO)[C@H]([C@H](O)[C@H](O)CNC(=O)Cc2ccc(N3CCC(O)CC3)cc2)O1` [Compound 194, (2R,4S,5R,6R)-6-((1R,2R)-1,2-dihydroxy-3-(2-(4-(4-hydroxypiperidin-1-yl)phenyl)acetamido)propyl)-4-hydroxy-5-(2-hydroxyacetamido)-2-((6-(prop-2-yn-1-yloxy)hexyl)oxy)tetrahydro-2H-pyran-2-carboxylic acid], the equilibrium dissociation constant (Kd) in assay [1] and in assay [2] was 1000 to 10000 nM throughout.

Take `C#CCOCCCCCCO[C@]1(C(=O)O)C[C@H](O)[C@@H](NC(=O)CO)[C@H]([C@H](O)[C@H](O)CNC(=O)Cc2ccc(-c3ccc(NC(C)=O)cc3)cc2)O1` [Compound 204, (2R,4S,5R,6R)-6-((1R,2R)-3-(2-(4′-acetamido-[1,1′-biphenyl]-4-yl)acetamido)-1,2-dihydroxypropyl)-4-hydroxy-5-(2-hydroxyacetamido)-2-((6-(prop-2-yn-1-yloxy)hexyl)oxy)tetrahydro-2H-pyran-2-carboxylic acid]: the dissociation constant (Kd) in assay [1] and in assay [2] was under 1000 nM each time.

As to `C#CCOCCOP(=O)(O)OCCCCCCO[C@]1(C(=O)O)C[C@H](O)[C@@H](NC(=O)CO)[C@H]([C@H](O)[C@H](O)CNC(=O)Cc2ccc(C(F)F)cc2)O1` [Compound 215, (2R,4S,5R,6R)-6-((1R,2R)-3-(2-(4-(difluoromethyl)phenyl)acetamido)-1,2-dihydroxypropyl)-4-hydroxy-2-((6-((hydroxy(2-(prop-2-yn-1-yloxy)ethoxy)phosphoryl)oxy)hexyl)oxy)-5-(2-hydroxyacetamido)tetrahydro-2H-pyran-2-carboxylic acid], the Kd in assay [1] is over 10000 nM; in assay [2] it was under 1000 nM.
